Test results as given in a melting point compilation (Tetko et al.; mined from patent text by program, amines drawn as free bases though some values may be those of a salt).

Row | Compound | melting point [°C]
1 | Cc1ccc(-c2cccc(C(N)=O)c2)cc1 | 200 to 205
2 | OCCCCOc1ccc2ccccc2c1 | 66.5 to 67.5
3 | Cc1cccc(C)c1N(CC(C)O)S(C)(=O)=O (stereo unspecified) | 81 to 84
4 | CN(C)C=C1C(=O)N(c2cccc(Cl)c2)c2ccccc21 | 116 to 118
5 | CS(=O)(=O)c1ccc(-n2cccc2-c2ccc(Cl)cc2)cc1 | 203 to 205
6 | CCOC(=O)c1cn(CC)c2cc(C3CCCCC3)ccc2c1=O | 176 to 178
7 | COC1C(OC(=O)c2ccc([N+](=O)[O-])cc2)C=C(C)C(=O)CC1(C)C (stereo unspecified) | 136 to 138
8 | CS(=O)(=O)c1ccc(-c2cnn(CC(O)c3ccccc3)c(=O)c2-c2ccc(F)cc2)cc1 (stereo unspecified) | 205 to 207
9 | O=C(O)CCn1cc(Br)c2c3c(c(-c4ccccc4Cl)cc21)C(=O)NC3=O | 182 to 186
10 | O=C(O)c1ccc(NCC(O)C(O)C(O)C(O)CO)cc1 (stereo unspecified) | 111 to 112
11 | COc1ccccc1CNc1ccc2cc(Nc3nnc(C)o3)ccc2n1 | 183
12 | COc1cc(F)c(CN(C=O)CCc2ccc(O)cc2)cc1O | 153 to 168
13 | CC(Oc1ccc([N+](=O)[O-])cc1F)c1c(Cl)ccc(F)c1Cl (stereo unspecified) | 110
14 | N#CCc1ccc(OCc2ccccc2)c([N+](=O)[O-])c1 | 91 to 97
15 | CS(=O)(=O)ON=C(Cl)c1ccc(Cl)cc1 | 80 to 82
16 | CCOC(=O)CON1C(=O)C(=O)N(c2ccccc2SC)C1=S | 112 to 114
17 | CCNSc1ccc([N+](=O)[O-])cc1C(Cl)(Cl)Cl | 80
18 | CN1C(=O)C(c2ccc(OC(F)(F)F)cc2)(C23CC4CC(CC(C4)C2)C3)N=C1N (stereo unspecified) | 125
19 | C[C@H]1c2cc(F)ccc2-c2ccccc2N1S(=O)(=O)c1ccc(OS(N)(=O)=O)cc1 | 166 to 167
20 | CCCC(C)SC1NN=C(c2ccncc2)N1c1ccccc1 (stereo unspecified) | 96 to 97
21 | CN(Sc1nc2ccccc2s1)C(=O)Oc1cccc2c1OC(C)(C)C2 | 92 to 93
22 | Cc1ccccc1C(=O)N(CN(C)C)c1ccc(C(=O)N2Cc3ccccc3Cc3ccccc32)cc1 | 131 to 133
23 | CCOC(=O)c1c(CCc2c[nH]nn2)nc2sc3c(c2c1-c1ccc(OC)c(OC)c1)CCN(C(=O)c1ccccc1)C3 | 184 to 185
24 | COc1ccc(C=O)cc1CCl | 55 to 57
25 | O=c1[nH]c2c(F)cccc2o1 | 131 to 133
26 | CS(=O)(=O)c1ccc(-c2cc(CO)nn2Cc2ccccc2)cc1 | 155

Row | Compound | melting point [°C]
27 | COc1cccc(S(=O)(=O)NC(C)(C)C)c1 | 100
28 | Cc1cc(O)c(O)cc1S(=O)(=O)c1ccc(F)cc1 | 175 to 177
29 | O=Cc1cc(Br)ccc1OCCc1ccccc1 | 79 to 80
30 | CCCc1c(C(C)=NO)c2ccc(C(N)=O)cc2n1Cc1ccccc1Cl | 212 to 216
31 | CSc1cc(C(C)(C)C)n[nH]1 | 135 to 136
32 | CCCn1c(=O)sc2cc(F)c(NC(=O)C=C(CC)NC(=O)OCC)cc21 | 174 to 175
33 | CC(C)Nc1cccnc1N1CCN(C(=O)c2ccc(C(=O)N3CCSCC3)cc2)CC1 | 163 to 164
34 | C#CCOc1ccc2c(c1)nc(N)c1nc(COCC)n(CC(C)(C)NS(C)(=O)=O)c12 | 175 to 176
35 | O=C(COc1ccc(-c2ccccc2-c2nn[nH]n2)cc1)C1CC1 | 184 to 185
36 | O=S(=O)(c1ccccc1)C(F)(F)C(O)c1ccc(Cl)cc1 (stereo unspecified) | 100 to 102
37 | Cc1cc(C)cc(NC(=O)Cc2ccc(OC(C)(C)C(=O)O)cc2)c1 | 85
38 | CCC(CC)Nc1cc(C)nc(Nc2c(C)cc(C)cc2C)c1[N+](=O)[O-] | 104 to 107
39 | CC(=O)OC1CCC2(C)C(CCC3C4CC5OC6(CC(C)C(C)(C)O6)C(C)(O)C5C4(C)CC(OC(C)=O)C32)C1 (stereo unspecified) | 253 to 256
40 | COCCOc1ccc(CO)c(Oc2ncc(C(F)(F)F)cc2Cl)c1 | 85 to 85.5
41 | N#Cc1ccc(N2C(=O)C3C(F)CCN3C2=O)c2ccccc12 (stereo unspecified) | 228 to 230
42 | CN(C)c1ccc(-c2nnc(S)nc2-c2ccc(N(C)C)cc2)cc1 | 276 to 279
43 | CC(=O)Oc1c(C=C(C#N)C#N)n(C(C)=O)c2ccccc12 | 250 to 252
44 | Cc1cccc(Cl)c1N1C(=O)CON(C)C1=S | 176 to 178
45 | COc1ccc2c(c1)c(CO)nn2Cc1ccccc1 | 97 to 98
46 | CCOC(=O)Cn1c(CC)nc2c(OCc3ccc(OC)cc3)cccc21 | 112
47 | O=C(NC[C@@H]1CCNC[C@H]1O)c1cc(Cl)cc2c1OCCCO2 | 114
48 | Cc1c(Cc2cccc(C(F)(F)F)c2)oc2cccc(-c3cccc(C(=O)NCCO)c3)c12 | 139 to 141
49 | Cc1ccc(NCC(=O)Nc2ccc(S(N)(=O)=O)cc2Cl)cc1 | 215 to 216
50 | Oc1ccc(O[C@@H]2CCNC[C@H]2O)cc1 (relative stereo) | 176 to 178
51 | CC1=NN(c2ccc(Cl)cc2)C(c2ccc(NC(=O)c3cccc(I)c3C(=O)NC(C)C)c(C)c2)C1 (stereo unspecified) | 222 to 224
52 | CN1CCCC1Cc1ccc(N)cc1 (stereo unspecified) | 59 to 61

Row | Compound | melting point [°C]
53 | C=CCNc1nc(-c2ccc(=O)n(C(C)C)n2)c(-c2ccccc2)nc1N | 208 to 210
54 | FC(F)(F)c1ccc(-c2[nH]c(=S)[nH]c2-c2ccc(C(F)(F)F)cc2)cc1 | 312 to 315
55 | CC(C)(C)NC(=S)N1CCN(c2cnccn2)CC1 | 153 to 156
56 | COc1ccc(C[C@H](Nc2nc3ccc(Cl)cc3cc2C(=O)O)C(=O)O)cc1 | 155 to 158
57 | CC1CC(=O)NN=C1c1ccc(Nc2nc(=O)cc[nH]2)cc1 (stereo unspecified) | 268 to 270
58 | CCCCNC(=O)Nc1ccccc1CCc1cc(C(C)(C)C)c(O)c(C(C)(C)C)c1 | 133 to 134
59 | CC(C)(C)C12OOC1(c1cc3cc(O[Si](C)(C)C(C)(C)C)ccc3s1)OCC2(C)C (stereo unspecified) | 125 to 126
60 | CC(C)(C)[Si](C)(C)Oc1ccc(S(N)(=O)=O)cc1 | 117 to 118
61 | COC(=O)Cc1ccc(-c2ccc(F)cc2F)c(F)c1 | 74 to 77
62 | CCCCc1nccn1Cc1ccc2oc(-c3ccccc3C(=O)O)c(Br)c2c1 | 138 to 145
63 | COc1cc(OC)c2c(=O)[nH]c(-c3ccc(OCCNC(C)C)c(-c4ccc(S(C)=O)cc4)n3)nc2c1 (stereo unspecified) | 93 to 95
64 | Cc1ccc(S(=O)(=O)c2ccccc2S(=O)(=O)N=CN(C)C)cc1 | 178
65 | C[C@@H](n1cnc2cc(-c3ccc(C#N)cc3)sc2c1=O)[C@](O)(Cn1cncn1)c1ccc(Cl)cc1Cl | 133 to 138
66 | COc1ccc(-c2cnc3[nH]cc(C#N)c3n2)cc1OC | 284 to 285
67 | COc1cc(-n2cc[nH]c2=O)c(Cl)cc1Cn1nc(-c2ccc(C(F)(F)F)cc2)oc1=O | 201 to 202
68 | CCOC(=O)c1ccc2c(c1)N(C(=O)C(C)Br)c1ccccc1C=C2 (stereo unspecified) | 163
69 | N#Cc1ccc(N2CCC(=O)C2)c2ccccc12 | 153 to 154
70 | CC(COc1ccc(O)c(C(N)=O)c1)N(Cc1ccccc1)CC(O)COc1ccc(OCC(N)=O)cc1 (stereo unspecified) | 145 to 149
71 | Fc1ccc2cc(C3CCNCC3)sc2c1 | 115 to 120
72 | N#Cc1cc(N)ccc1N1CCC(c2ccccc2)CC1 | 158 to 162
73 | Cc1cc2oc(S(N)(=O)=O)cc2cn1 | 233 to 234
74 | O=C1Nc2ccccc2N(C(=O)CCN2CCCCC2)c2ccc(Cl)cc21 | 170 to 172
75 | Cc1ccc(S(=O)(=O)NCCCCSc2ccc(NS(C)(=O)=O)cc2)cc1 | 95 to 96
76 | N#CCCNC(=O)c1ccnc(-c2cccc3oc(Cc4cccc(C(F)(F)F)c4)cc23)c1 | 114 to 115
77 | O=c1ccn(C2OC(CO)C(O)C2Cl)c(=O)[nH]1 (stereo unspecified) | 206 to 207
78 | CCc1cc2cc(O)c(Cl)c(Cl)c2s1 | 69 to 70

Row | Compound | melting point [°C]
79 | Cc1nsc(OCC(Cl)(Cl)Cl)c1S(N)(=O)=O | 140 to 142
80 | Cc1ccc(-c2cc(F)c(F)cc2-c2ccc(S(C)(=O)=O)cc2)cc1 | 147 to 148
81 | COc1cc(N=C(NC#N)Oc2ccccc2)cc(C(F)(F)F)c1 | 168 to 170
82 | CN(c1ncccc1C=O)C1CCN(C(=O)OC(C)(C)C)CC1 | 90 to 91
83 | NS(=O)(=O)c1cccc(-c2noc(-c3cnn4c(C(F)(F)F)cc(-c5ccc(Cl)cc5)nc34)n2)c1 | 247
84 | COc1ccc(CCCON2CCC(C(=O)c3nc4ccccc4s3)CC2)cc1 | 114 to 115
85 | CC1CCN(c2c(C#N)c3c(c4c2CCc2ccccc2-4)-c2ccccc2C3)CC1 | 152 to 154
86 | O=C(O)CP(=O)(c1ccccc1)c1ccccc1 | 143 to 146
87 | COc1ccc2c(c1)CN(c1ccc3c(ccn3C)c1)C2 | 193 to 196
88 | N#Cc1ncn2c1N(C(=O)CN1CCN(Cc3ccccc3)CC1)CC=C2c1cccc(C(F)(F)F)c1 | 167 to 169
89 | C#CCN1C(=O)COc2cc(F)c(N(C(=O)CCl)C(=O)C3=C(C(=O)OC)CCCC3)cc21 | 156 to 158
90 | N#CCCCc1ncc(Br)cc1[N+](=O)[O-] | 73 to 76
91 | N#CC(Cc1ccccn1)(c1ccccc1)c1ccccc1 | 116 to 117
92 | O=C(Cc1ccc2[nH]cc(CCN3C(=O)c4ccccc4C3=O)c2c1)NC1CCCCC1 | 175 to 176
93 | CCCn1nc2c(N)nc3ccccc3c2c1CCNC(C)=O | 185 to 186
94 | CCOC(=O)c1cn(Cc2ccccc2)nc1OCc1ccc(OCc2nc(-c3ccco3)oc2C)c(CC)c1 | 125 to 126
95 | COc1cc(OC)nc(Oc2ccc3[nH]c(C)c(NC(C)=O)c3c2C(=O)O)n1 | 230 to 233
96 | FC(F)(c1ccccc1)C(F)(F)c1ccccc1Br | 54 to 55
97 | O=C(Nc1nccs1)C(CC1CCCC1)c1ccc(NS(=O)(=O)C(F)(F)F)cc1 (stereo unspecified) | 70 to 74
98 | COC(=O)Nc1cc(Cl)nc(NC(=O)OC)n1 | 156 to 158
99 | CCc1nc(-c2cc3[nH]c(=O)c(=O)[nH]c3cc2[N+](=O)[O-])c[nH]1 | 249 to 250
100 | Cc1cc2c(cc1Br)C(C)(C)C=CC2(C)C | 103 to 105
101 | CCCCn1c(=Nc2ccccc2)sc2ncccc2c1=O | 68 to 69
